Values quoted from earlier work in patent US9131678B1, “Ultraviolet strategy for avian repellency” (The United States of America, as represented by the …, priority 2009, dated 2015).

What was measured:
[1] = test system: male red-winged blackbirds; settings: 2,500 ppm caffeine, male red-winged blackbirds in captivity
Blackbirds = settings: rice seeds treated with 10,000 ppm caffeine, field conditions; >80% of untreated rice seeds consumed

Cn1c(=O)c2c(ncn2C)n(C)c1=O [caffeine]
reduction of rice consumption [1]: 76% | rice seeds consumed (Blackbirds): < 10%
